Patent US7713969B2, “Compositions and methods for treatment of cancer” (ArQule, Inc., priority 2005, dated 2010)

How the values were obtained:
Assay in all cases: Cell viability MTS assay
Type in all cases: cell-based, human
[1] = test system: K562
Protocol: (§1) Cell viability was determined by measuring the activity of dehydrogenase enzymes in metabolically active cells using a tetrazolium compound, MTS. The assay was performed as described in Promega Technical Bulletin No. 169 (CellTiter 96 Aqueous Non-Radioactive Cell Proliferation Assay). Thirteen human cancer cell lines were assayed (see, e.g., Table 1). Cells were maintained at 37° C., 5% CO2. Adherent cells were maintained DMEM media (4.5 g/L glucose) supplemented with 15% heat-inactivated FBS, 10 mM L-glutamine, and 10 mM Hepes pH 7.5. Suspension cells were maintained in RPMI 1640 media, supplemented with 10% heat-inactivated FBS and 10 mM Hepes pH 7.5. Briefly, cells were seeded in 96-well plates as set forth in Table 1 and incubated for 16-24 hours. Candidate compounds were serially diluted in DMSO, further diluted in cell culture media, and then added to cells (final DMSO concentration of 0.33%). Cells were incubated in the presence of candidate compound for 72 hours. MTS stock solution (MTS 2 gm/L, PMS […] in PBS) was added to the cells (final concentration MTS […] and PMS 7.67 mg/L) and incubated for 4 hours. SDS was added to a final concentration of 1.4% and absorbance at 490 nm was measured within two hours using a platereader. The IC50 was defined as the concentration of compound that results in a 50% reduction in the number of viable cells as compwered to control wells treated with DMSO only (0.33%) and was calculated using non-linear regression analyswas. IC50 values were given in Table 2 for the compounds listed.

[2] = test system: HCT-116
Protocol: as §1

[3] = test system: HT29
Protocol: as §1

[4] = test system: A549
Protocol: as §1

[5] = test system: DU-145
Protocol: as §1

[6] = test system: MCF7; settings: Homo sapiens, MCF7, 72 hours with compound
Protocol: as §1

[7] = test system: SKOV-3; settings: Homo sapiens, SK-OV-3, 72 hours with compound
Protocol: as §1

[8] = test system: PC-3; settings: Homo sapiens, PC-3, 72 hours with compound
Protocol: as §1

[9] = test system: SK-MEL-28; settings: Homo sapiens, SK-MEL-28, 72 hours with compound
Protocol: as §1

[10] = test system: MDA-MB-231; settings: Homo sapiens, MDA-MB-231, 72 hours with compound
Protocol: as §1

[11] = test system: NCI-H69; settings: 72 hours with compound
Protocol: as §1

[12] = Homo sapiens, K562, 72 hours with compound
[13] = Homo sapiens, HCT-116, 72 hours with compound
[14] = Homo sapiens, HT-29, 72 hours with compound
[15] = Homo sapiens, A549, 72 hours with compound
[16] = Homo sapiens, DU-145, 72 hours with compound

IC50 [6]	IC50 [7]	IC50 [8]	IC50 [3, 14]	IC50 [9]	IC50 [10]	Compound	other results
–	–	–	–	–	–	3-(5,6-Dihydro-4H-pyrrolo[3,2,1-ij]quinolin-1-yl)-4-(2,6-dichloro-phenyl)-pyrrole-2,5-dione [Example 20]	IC50 ([1]; 72 hours with compound): 2.47 µM; IC50 ([2]; 72 hours with compound): 4.96 µM; IC50 ([3]; 72 hours with compound): > 100 µM; IC50 ([4]; 72 hours with compound): 38.8 µM; IC50 ([5]; 72 hours with compound): 31.1 µM
> 100 µM	6.88 µM	11.5 µM	8.78 µM	25.2 µM	–	O=C1NC(=O)[C@@H](c2cn3c4c(cccc24)CCC3)[C@H]1c1ccc(F)cc1Cl (racemic) [Example 54, (±)-Cis-3-(5,6-dihydro-4H-pyrrolo[3,2,1-ij]quinolin-1yl)-4-(2-chloro-4-fluoro-phenyl)-pyrrolidine-2,5-dione]	IC50 [1, 12]: 3.37 µM; IC50 [2, 13]: 7.63 µM; IC50 [4, 15]: 22.1 µM; IC50 [5, 16]: 21.1 µM
> 100 µM	30.2 µM	22.2 µM	56.8 µM	> 100 µM	30 µM	O=C1NC(=O)C(c2cn3c4c(cccc24)CCC3)=C1c1ccccc1Br [Example 21, 3-(5,6-Dihydro-4H-pyrrolo[3,2,1-ij]quinolin-1-yl)-4-(2-bromo-phenyl)-pyrrole-2,5-dione]	IC50 [1, 12]: 6.42 µM; IC50 [2, 13]: 5.44 µM; IC50 [4, 15]: 28.6 µM; IC50 [5, 16]: 21.8 µM
–	–	–	–	–	–	(±)-Trans-3-(5,6-dihydro-4H-pyrrolo[3,2,1-ij]quinolin-1yl)-4-(N-methylindol-3-yl)pyrrolidine-2,5-dione [Example 51]	IC50 ([3]; 72 hours with compound): 66.8 µM; IC50 [11]: 37.7 µM
> 100 µM	36.2 µM	96.2 µM	46.8 µM	39.6 µM	70.5 µM	O=C1NC(=O)C(c2cn3c4c(cccc24)CCC3)=C1c1cccc2ccccc12 [Example 19, 3-(5,6-Dihydro-4H-pyrrolo[3,2,1-ij]quinolin-1-yl)-4-naphthalene-1-yl-pyrrole-2,5-dione]	IC50 [1, 12]: 14 µM; IC50 [2, 13]: 26.2 µM; IC50 [4, 15]: 41 µM; IC50 [5, 16]: > 100 µM
> 100 µM	37.6 µM	> 100 µM	> 100 µM	> 100 µM	> 100 µM	CN1C(=O)[C@H](c2cn(C)c3ccccc23)[C@H](c2cn3c4c(cccc24)CCC3)C1=O (racemic) [Example 61, (±)-cis-3-(5,6-dihydro-4H-pyrrolo[3,2,1-ij]quinolin-1-yl)-4(1-methylindol-3-yl)-1-methylpyrrolidine-2,5-dione]	IC50 [1, 12]: 18.7 µM; IC50 [2, 13]: 96.2 µM; IC50 [4, 15]: 78.9 µM; IC50 [5, 16]: > 100 µM
–	–	–	4.76 µM	–	> 100 µM	O=C1NC(=O)[C@@H](c2cn3c4c(cccc24)CCC3)[C@@H]1c1ccccc1F (racemic) [Example 46, (±)-Trans-3-(5,6-dihydro-4H-pyrrolo[3,2,1-ij]quinolin-1yl)-4-(2-fluorophenyl)pyrrolidine-2,5-dione]	–
–	–	–	> 100 µM	–	> 100 µM	O=C1NC(=O)C(c2cn3c4c(cccc24)CCC3)=C1c1ccccn1 [Example 9, 3-(5,6-Dihydro-4H-pyrrolo[3,2,1-ij]quinolin-1-yl)-4-pyridin-2-yl-pyrrole-2,5-dione]	–
–	–	–	22.6 µM	–	> 100 µM	O=C1[C@@H](c2c[nH]c3ccccc23)[C@H](c2cn3c4c(cccc24)CCC3)C(=O)N1COP(=O)(OCc1ccccc1)OCc1ccccc1 (relative stereo) [phosphoric acid dibenzyl ester trans-3-(5,6-dihydro-4H-pyrrolo[3,2,1-ij]quinolin-1-yl)-4-(1H-indol-3-yl)-2,5-dioxo-pyrrolidin-1-ylmethyl ester]	–
> 100 µM	11.6 µM	12.9 µM	13.1 µM	> 100 µM	15.5 µM	O=C1NC(=O)[C@@H](c2cn3c4c(cccc24)CCC3)[C@H]1c1cccc(Cl)c1 (racemic) [Example 55, (±)-Cis-3-(5,6-dihydro-4H-pyrrolo[3,2,1-ij]quinolin-1yl)-4-(3-chlorophenyl)-pyrrolidine-2,5-dione]	IC50 [1, 12]: 3.47 µM; IC50 [2, 13]: 12.1 µM; IC50 [4, 15]: 13.1 µM; IC50 [5, 16]: 35.7 µM
–	–	–	48.7 µM	–	54.5 µM	O=C1NC(=O)[C@@H](c2cn3c4c(cccc24)CCC3)[C@@H]1c1ccc(Cl)cc1 (racemic) [Example 43, (±)-Trans-3-(5,6-dihydro-4H-pyrrolo[3,2,1-ij]quinolin-1yl)-4-(4-chlorophenyl)pyrrolidine-2,5-dione]	–
–	–	–	> 100 µM	–	> 100 µM	COc1ccc(OC)c(C2=C(c3cn4c5c(cccc35)CCC4)C(=O)NC2=O)c1 [Example 17, 3-(5,6-Dihydro-4H-pyrrolo[3,2,1-ij]quinolin-1-yl)-4(2,5-dimethoxy-phenyl)-pyrrole-2,5-dione]	–
> 100 µM	57.4 µM	> 100 µM	> 100 µM	> 100 µM	> 100 µM	COc1ccc(OC)c([C@H]2C(=O)NC(=O)[C@H]2c2cn3c4c(cccc24)CCC3)c1 (racemic) [Example 53, (±)-Cis-3-(5,6-dihydro-4H-pyrrolo[3,2,1-ij]quinolin-1yl)-4-(2,5-dimethoxyphenyl)-pyrrolidine-2,5-dione]	IC50 [1, 12]: 36.3 µM; IC50 [2, 13]: > 100 µM; IC50 [4, 15]: > 100 µM; IC50 [5, 16]: > 100 µM
–	–	–	> 100 µM	–	> 100 µM	O=C1NC(=O)C(c2cn3c4c(cccc24)CCC3)=C1c1ccc2c(c1)OCO2 [Example 11, 3-Benzo[1,3]dioxol-5-yl-4-(5,6-dihydro-4H-pyrrolo[3,2,1-ij]quinolin-1-yl)-pyrrole-2,5-dione]	–
–	–	–	> 100 µM	–	> 100 µM	COc1ccc(C2=C(c3cn4c5c(cccc35)CCC4)C(=O)NC2=O)cc1 [Example 10, 3-(5,6-Dihydro-4H-pyrrolo[3,2,1-ij]quinolin-1-yl)-4(4-methoxy-phenyl)-pyrrole-2,5-dione]	–
–	–	–	71.6 µM	–	98.2 µM	O=C1NC(=O)C(c2cn3c4c(cccc24)CCC3)=C1c1cccc(Oc2ccccc2)c1 [Example 14, 3-(5,6-Dihydro-4H-pyrrolo[3,2,1-ij]quinolin-1-yl)-4-(3-phenoxy-phenyl)-pyrrole-2,5-dione]	–
–	–	–	44.1 µM	–	49.6 µM	O=C1NC(=O)[C@@H](c2cn3c4c(cccc24)CCC3)[C@@H]1c1ccc(Br)cc1 (racemic) [Example 42, (±)-Trans-3-(5,6-dihydro-4H-pyrrolo[3,2,1-ij]quinolin-1yl)-4-(4-bromophenyl)pyrrolidine-2,5-dione]	–
–	–	–	4.45 µM	–	5.89 µM	O=C1[C@@H](c2c[nH]c3ccccc23)[C@H](c2cn3c4c(cccc24)CCC3)C(=O)N1COP(=O)(O)O (racemic) [(±)-Phosphoric acid mono-[trans-3-(5,6-dihydro-4H-pyrrolo[3,2,1-ij]quinolin-1-yl)-4-(1H-indol-3-yl)-2,5-dioxo-pyrrolidin-1-ylmethyl]ester]	–
> 100 µM	23.8 µM	82.7 µM	–	74 µM	50.3 µM	O=C1NC(=O)C(c2cn3c4c(cccc24)CCC3)=C1c1c(Cl)cccc1Cl [Example 20, 3-(5,6-Dihydro-4H-pyrrolo[3,2,1-ij]quinolin-1-yl)-4-(2,6-dichloro-phenyl)-pyrrole-2,5-dione]	–
–	–	–	> 100 µM	–	59.4 µM	O=C1NC(=O)C(n2ccc3ccccc32)=C1c1cn2c3c(cccc13)CCC2 [Example 22, 3-(5,6-Dihydro-4H-pyrrolo[3,2,1-ij]quinolin-1-yl)-4-indol-1-yl-pyrrole-2,5-dione]	–
–	–	–	40.9 µM	–	21.5 µM	O=C1NC(=O)C(c2cn3c4c(cccc24)CCC3)=C1c1ccccc1Cl [Example 16, 3-(5,6-Dihydro-4H-pyrrolo[3,2,1-ij]quinolin-1-yl)-4-(2-chloro-phenyl)-pyrrole-2,5-dione]	–
–	–	–	75.8 µM	–	43.6 µM	O=C1NC(=O)C(c2cn3c4c(cccc24)CCC3)=C1c1cccc(Cl)c1 [Example 15, 3-(5,6-Dihydro-4H-pyrrolo[3,2,1-ij]quinolin-1-yl)-4-(3-chloro-phenyl)-pyrrole-2,5-dione]	–
